Experimental data taken from patent publication US11591326B2, “Inhibitors of protein arginine methyltransferase 5 (PRMT5), pharmaceutical products thereof, and methods thereof” (PHARMABLOCK SCIENCES (NANJING), INC., priority 2018, dated 2023).

How the values were obtained:
[1] = molecular target: Human recombinant PRMT5 in complex with human recombinant MEP50 (Homo sapiens (Human), UniProt O14744); experiment: PRMT5/MEP50 AlphaLISA enzyme inhibitory assay; assay type: biochemical; conditions: PRMT5/MEP50 25 nM, SAM 10 μM, Biotin-H4 peptide 30 nM
Description: Human recombinant PRMT5 in complex with human recombinant MEP50, co-expressed in an insect cell/baculovirus expression system was purchased from Reaction Biology (Malvern, Pa.). […] Anti-H4R3-Me AlphaLISA acceptor beads and Streptavidin labeled AlphaLISA donor beads were obtained from PerkinElmer (Waltham, Mass.). S-adenosylmethionine (SAM), Tween20, dimethylsulfoxide (DMSO), and Tris buffer were obtained from Sigma at the highest level of purity available.
General Procedure for PRMT5/MEP50 AlphaLISA Enzyme Inhibitory Assays: Assays were performed in the buffer consisting of 50 mM Tris, pH 8.5, 5 mM MgCl2, 50 mM NaCl with 0.01% Tween20 and 1 mM DTT added right before the assay. 2.5 μL of compound solution in the assay buffer with 4% DMSO and 5 μL of PRMT5/MRP50 complex/SAM mixture solution in the assay buffer which was pre-incubated for 30 minutes were added into a white low volume 384 well microtiter plate. This mixture solution was incubated for 15 minutes with gentle shaking at room temperature. Methyl transfer reaction was initiated by adding 2.5 μL of Biotin-H4 (1-21) peptide substrate solution in the assay buffer. Final concentrations of PRMT5/MEP50, SAM, Biotin-H4 peptide substrate, and DMSO were 25 nM, 10 μM, 30 nM, and 1%, respectively. The reaction was allowed to perform for 120 minutes in dark with gentle shaking at room temperature after which 5 μL of Anti-H4R3-Me AlphaLISA acceptor beads in detection buffer from the manufacturer was added into the reaction mixture followed by incubation for 60 minutes. 10 μL of Streptavidin labeled AlphaLISA donor beads in detection buffer was added into the mixture followed by 30 minute incubation. Final acceptor and donor beads concentrations were 10 μg/mL. Plates were read on an Envision multimode plate reader from PerkinElmer (Waltham Mass., USA) with an excitation wavelength of 680 nm and emission wavelength of 615 nm. IC50 values of inhibitors were obtained by fitting the fluorescence intensity vs inhibitor concentrations in a sigmoidal dose-response curve (variable slopes, four parameters) using Prism 7 (La Jolla, Calif.).

[2] = test system: Mantle Cell Lymphoma Z-138 cell; experiment: Cell proliferation inhibition, Z-138 (CCK8); assay type: cell-based; conditions: Z-138, incubated 4 days
Description: (§1) Materials and Cell Lines: Z-138, U251, and MIA PaCa2 cells were purchased from ATCC (American Type Culture Collection, Manassas, Va.) and Chinese Academy of Science (Shanghai, China). Iscove's Modified Dulbecco's Medium (IMDM), Dulbecco's Modified Eagle Medium (DMEM), penicillin-streptomycin, heat inactivated fetal bovine serum (FBS), and horse serum was purchased from ThermoFisher, Waltham, Mass., USA. Corning 96- and 384-well cell culture plates were purchased from ThermoFisher, Waltham, Mass., USA. Cell-Titer Glo® was purchased from Promega Corporation, Madison, Wis., USA.
In order to evaluate the inhibitory ability of compounds synthesized on the proliferation of the Mantle Cell Lymphoma Z-138 cell, exponentially growing cells were seeded in the media of IMDM with 10% horse serum and 1% penicillin-streptomycin at a concentration of 30000 cells/ml in a 96-well plate with 100 ul per well and incubated overnight at 37° C., 5% CO2 incubator. Compounds were prepared as 10-point, 3-fold serial dilutions in DMSO, beginning at 6 mM. 1 μl of DMSO solutions from the compound stock plates were added to 99 ul of cell culture media (final top concentration of compound in the assay was 30 uM and the final concentration of DMSO was 0.5%). 100 μL of compound solutions in media were added to each well of Z-138 cell plates. After adding compound solutions, assay plates were incubated for 4 days at 37° C., 5% CO2. Cell viability was measured using the Cell Counting Kit-8 (CCK8) obtained from the Beyotime Biotehnology, Shanghai, China. 20 ul of CCK8 reagent was added to each well of the Z-138 assay plate which was incubated at 37° C. for 2 hours. O.D. at 450 nm was read with the FlexStation 3 microplate reader (Molecular Devices, Sunnyvale, Calif. 94089 USA). The concentrations of compounds inhibiting cell viability by 50% (IC50 values) were determined using a sigmoidal dose-response model (variable slopes, four parameters) in Prism 7 (La Jolla, Calif.).

[3] = test system: Pancreatic Carcinoma MIA PaCa-2 cell; experiment: Cell proliferation inhibition, MIA PaCa-2 (CellTiter-Glo); assay type: cell-based; conditions: Homo sapiens, MIA PaCa-2, incubated for 12 days (read after 8 or 12 days), read-out: IC50 (μM) MIA PaCa2
Description: as §1
In order to evaluate the inhibitory ability of compounds synthesized on the proliferation of the Pancreatic Carcinoma MIA PaCa-2 cell, exponentially growing cells were seeded in the culture media of DMEM with 10% FBS, 2.5% horse serum, 1 mM of Sodium Pyruvate and 1% penicillin-streptomycin at a concentration of 2500 cells/ml in a 384-well plate with 20 ul per well and incubated overnight at 37° C., 5% CO2 incubator. Compounds were prepared as 10-point, 3-fold serial dilutions in DMSO, beginning at 6 mM. 1 μl of DMSO solutions from the compound stock plates were added to 99 ul of cell media (final top concentration of compound in the assay was 30 uM and the final concentration of DMSO was 0.5%). 20 μL of compound solutions in media were added to each well of MIA PaCa-2 cell plates. After adding compound solutions, assay plates were incubated for 12 days at 37° C., 5% CO2. During this incubation period, cell media was changed every 4 days. After removing old media from cell plates, 40 ul of media with testing compounds dissolved, which were prepared by adding 1 ul of compound DMSO serial solutions to 199 ul of cell media, were added to the assay plates with the same layout as they were initially prepared. After 8 or 12 days, cell viability was measured using the CellTiter-Glo assay kit from Promega (Madison, Wis., USA) by quantitating the ATP present in the cell cultures. 20 μL of CellTiter-Glo reagent was added to each well of the cell plates. Luminescence was read after 10 minute of incubation with the Envision multiple plate reader from PerkinElmer (Waltham, Mass., USA). The concentrations of compounds inhibiting cell viability by 50% (IC50 values) were determined using a sigmoidal dose-response model (variable slopes, four parameters) in Prism 7 (La Jolla, Calif., USA).

[4] = test system: Glioblastoma U-251 cell; experiment: Cell proliferation inhibition, U-251 (CellTiter-Glo); assay type: cell-based; conditions: Homo sapiens, U-251, incubated for 12 days (read after 8 or 12 days)
Description: as §1
In order to evaluate the inhibitory ability of compounds synthesized on the proliferation of the Glioblastoma U-251 cell, exponentially growing cells were seeded in the cell culture media of DMEM with 10% FBS and 1% penicillin-streptomycin at a concentration of 10000 cells/ml in a 384-well plate with 20 ul per well and incubated overnight at 37° C., 5% CO2 incubator. Compounds were prepared as 10-point, 3-fold serial dilutions in DMSO, beginning at 6 mM. 1 μl of DMSO solutions from the compound stock plates were added to 99 ul of cell culture media (final top concentration of compound in the assay was 30 uM and the final concentration of DMSO was 0.5%). 20 μL of compound solutions in media were added to each well of U-251 cell plates. After adding compound solutions, assay plates were incubated for 12 days at 37° C., 5% CO2. During this incubation period, cell culture media with freshly dissolved testing compounds was changed every 4 days. After removing old media from cell plates, 40 ul of media with testing compounds dissolved, which were prepared by adding 1 ul of compound DMSO serial solutions to 199 ul of cell media, were added to the assay plates with the same layout as they were initially prepared. After 8 or 12 days, cell viability was measured using the CellTiter-Glo assay kit from Promega (Madison, Wis., USA) by quantitating the ATP present in the cell cultures. 20 μL of CellTiter-Glo reagent was added to each well of the cell plates. Luminescence was read after 10 minute of incubation with the Envision multiple plate reader from PerkinElmer (Waltham, Mass., USA). The concentrations of compounds inhibiting cell viability by 50% (IC50 values) were determined using a sigmoidal dose-response model (variable slopes, four parameters) in Prism 7 (La Jolla, Calif., USA).

Chain of Human recombinant PRMT5 in complex with human recombinant MEP50 (O14744 whole entry): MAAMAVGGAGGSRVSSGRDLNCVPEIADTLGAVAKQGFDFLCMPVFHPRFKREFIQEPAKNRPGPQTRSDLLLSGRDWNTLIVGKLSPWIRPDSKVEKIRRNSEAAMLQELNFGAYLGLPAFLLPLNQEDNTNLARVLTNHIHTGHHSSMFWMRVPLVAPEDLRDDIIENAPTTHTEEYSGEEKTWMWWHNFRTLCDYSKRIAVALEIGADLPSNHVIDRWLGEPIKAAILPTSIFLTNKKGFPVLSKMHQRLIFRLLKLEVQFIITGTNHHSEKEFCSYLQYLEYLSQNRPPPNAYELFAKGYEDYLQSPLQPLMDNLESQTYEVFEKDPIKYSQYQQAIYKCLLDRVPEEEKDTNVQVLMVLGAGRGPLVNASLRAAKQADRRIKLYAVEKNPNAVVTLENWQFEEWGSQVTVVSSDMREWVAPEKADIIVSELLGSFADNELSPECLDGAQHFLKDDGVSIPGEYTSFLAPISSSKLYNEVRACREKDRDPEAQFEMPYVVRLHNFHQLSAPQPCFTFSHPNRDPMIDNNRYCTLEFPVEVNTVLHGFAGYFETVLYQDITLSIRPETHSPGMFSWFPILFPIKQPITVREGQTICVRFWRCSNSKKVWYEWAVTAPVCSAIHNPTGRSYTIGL
Chain of Human recombinant PRMT5 in complex with human recombinant MEP50 (Q9BQA1 whole entry partner): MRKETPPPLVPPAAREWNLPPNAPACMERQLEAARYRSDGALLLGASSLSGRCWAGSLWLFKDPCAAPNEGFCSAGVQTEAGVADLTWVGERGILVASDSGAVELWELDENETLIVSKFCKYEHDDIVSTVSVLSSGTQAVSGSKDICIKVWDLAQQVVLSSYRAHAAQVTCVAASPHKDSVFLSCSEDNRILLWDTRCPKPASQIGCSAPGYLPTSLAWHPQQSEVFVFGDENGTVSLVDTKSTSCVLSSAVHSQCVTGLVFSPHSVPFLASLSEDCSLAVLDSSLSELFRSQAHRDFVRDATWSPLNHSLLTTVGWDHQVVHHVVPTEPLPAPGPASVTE

| SMILES | IC50 [1] | IC50 ([2]; Homo sapiens, Z-138, 96 h) | IC50 [3] | IC50 [4] | IC50 ([2]; listed as Ref 1 (EPZ-015666a)) |
| --- | --- | --- | --- | --- | --- |
| Cn1cc(Nc2ccc3c(c2)C(=O)N(C[C@H](O)CN2CCc4ccccc4C2)CC3)cn1 [Compound 12a, (R)-2-(3-(3,4-dihydroisoquinolin-2(1H)-yl)-2-hydroxypropyl)-7-((1-methyl-1H-pyrazol-4-yl)amino)-3,4-dihydroisoquinolin-1(2H)-one] | 12 nM | 0.13 µM | 0.66 µM | 0.48 µM |  |
| O=C1c2cc(Nc3ccnnc3)ccc2CCN1C[C@H](O)CN1CCc2ccccc2C1 [Compound 28a, (R)-2-(3-(3,4-dihydroisoquinolin-2(1H)-yl)-2-hydroxypropyl)-7-(pyridazin-4-ylamino)-3,4-dihydroisoquinolin-1(2H)-one] | 4.9 nM | 0.029 µM | 0.68 µM | 0.5 µM |  |
| CC(=O)N1CCC(Nc2ccc3c(c2)C(=O)N(C[C@@H](O)CN2CCc4ccccc4C2)CCO3)CC1 [Compound 52b] | 108 nM | 0.137 µM | 0.83 µM | 5.8 µM |  |
| CC(=O)N1C2CCC1CC(Nc1ccc3c(c1)C(=O)N(CC(O)CN1CCc4ccccc4C1)CCO3)C2 (centres unmarked) [Compound 55, 7-((8-acetyl-8-azabicyclo[3.2.1]octan-3-yl)amino)-4-(3-(3,4-dihydroisoquinolin-2(1H)-yl)-2-hydroxypropyl)-3,4-dihydrobenzo[f][1,4]oxazepin-5(2H)-one] | 195 nM |  |  |  |  |
| CC(=O)N1CCC(Nc2ccc3c(c2)C(=O)N(C[C@@H](O)CN2CCc4ccccc4C2)C2CC3C2)CC1 [Compound 57b, (S)-8-((1-acetylpiperidin-4-yl)amino)-2-(3-(3,4-dihydroisoquinolin-2(1H)-yl)-2-hydroxypropyl)-2,3,4,5-tetrahydro-1H-3,5-methanobenzo[c]azepin-1-one] | 209 nM |  |  |  |  |
| O=C(NC[C@H](O)CN1CCc2ccccc2C1)c1cc(NC2COC2)ncn1 [Compound C1, reference compound] |  | 0.11 µM | 2 µM | 1.2 µM | 0.16 µM |
| O=C(NC[C@@H](O)CN1CCc2ccccc2C1)c1cc(NC2COC2)ncn1 [Compound C2, reference compound] |  | 9.1 µM | 12.1 µM | 28.3 µM |  |

Further molecules by falling IC50 [1], results first:

| IC50 [1] | IC50 ([2]; Homo sapiens, Z-138, 96 h) | IC50 [3] | IC50 [4] | IC50 ([2]; listed as Ref 1 (EPZ-015666a)) | SMILES |
| --- | --- | --- | --- | --- | --- |
| 1100 nM |  |  |  |  | CC(=O)N1CC2C(C1)C2Nc1ccc2c(c1)C(=O)N(CC(O)CN1CCc3ccccc3C1)CCO2 (centres unmarked) [Compound 56, 7-((3-acetyl-3-azabicyclo[3.1.0]hexan-6-yl)amino)-4-(3-(3,4-dihydroisoquinolin-2(1H)-yl)-2-hydroxypropyl)-3,4-dihydrobenzo[f][1,4]oxazepin-5(2H)-one] |
| 138 nM |  |  |  |  | CC(=O)N1CC2(CC(Nc3ccc4c(c3)C(=O)N(CC(O)CN3CCc5ccccc5C3)CCO4)C2)C1 (centres unmarked) [Compound 54, 7-((2-acetyl-2-azaspiro[3.3]heptan-6-yl)amino)-4-(3-(3,4-dihydroisoquinolin-2(1H)-yl)-2-hydroxypropyl)-3,4-dihydrobenzo[f][1,4]oxazepin-5(2H)-one] |
| 92.5 nM |  |  |  |  | CC(=O)N1CCC(Nc2ccc3c(c2)C(=O)N(C[C@H](O)CN2CCc4ccccc4C2)C2CC3C2)CC1 [Compound 57a, (R)-8-((1-acetylpiperidin-4-yl)amino)-2-(3-(3,4-dihydroisoquinolin-2(1H)-yl)-2-hydroxypropyl)-2,3,4,5-tetrahydro-1H-3,5-methanobenzo[c]azepin-1-one] |
| 57 nM | 0.041 µM | 0.024 µM |  |  | CC(=O)N1CCC(Nc2cc(F)c3c(c2)C(=O)N(C[C@H](O)CN2CCc4ccccc4C2)CCO3)CC1 [Compound 2a, (R)-7-((1-acetylpiperidin-4-yl)amino)-4-(3-(3,4-dihydroisoquinolin-2(1H)-yl)-2-hydroxypropyl)-9-fluoro-3,4-dihydrobenzo[f][1,4]oxazepin-5(2H)-one] |
| 8.4 nM | 0.073 µM | 0.4 µM | 0.14 µM |  | Cn1cc(Nc2ccc3c(c2)C(=O)N(C[C@H](O)CN2CCc4ccccc4C2)CCO3)cn1 [Compound 29a, (R)-4-(3-(3,4-dihydroisoquinolin-2(1H)-yl)-2-hydroxypropyl)-7-((1-methyl-1H-pyrazol-4-yl)amino)-3,4-dihydrobenzo[f][1,4]oxazepin-5(2H)-one] |
| 4.6 nM | 0.018 µM | 0.23 µM | 0.18 µM |  | O=C1c2cc(Nc3ccnnc3)ccc2OCCN1C[C@H](O)CN1CCc2ccccc2C1 [Compound 30a, (R)-4-(3-(3,4-dihydroisoquinolin-2(1H)-yl)-2-hydroxypropyl)-7-(pyridazin-4-ylamino)-3,4-dihydrobenzo[f][1,4]oxazepin-5(2H)-one] |
